In ChEMBL document CHEMBL5154874, “Discovery of novel dual RAGE/SERT inhibitors for the potential treatment of the comorbidity of Alzheimer's disease and depression” (Eur J Med Chem, 2022):
Active and inactive are the calls of the source. The calls are words filed in the database; no cut-off is given here.

Experiments:
[1] = target: Advanced glycosylation end product-specific receptor (Homo sapiens, UniProt Q15109); test: Inhibition of biotinylated human RAGE/amyloid beta interaction incubated for 120 mins by ELISA assay
Sequence of Advanced glycosylation end product-specific receptor (Q15109 whole entry): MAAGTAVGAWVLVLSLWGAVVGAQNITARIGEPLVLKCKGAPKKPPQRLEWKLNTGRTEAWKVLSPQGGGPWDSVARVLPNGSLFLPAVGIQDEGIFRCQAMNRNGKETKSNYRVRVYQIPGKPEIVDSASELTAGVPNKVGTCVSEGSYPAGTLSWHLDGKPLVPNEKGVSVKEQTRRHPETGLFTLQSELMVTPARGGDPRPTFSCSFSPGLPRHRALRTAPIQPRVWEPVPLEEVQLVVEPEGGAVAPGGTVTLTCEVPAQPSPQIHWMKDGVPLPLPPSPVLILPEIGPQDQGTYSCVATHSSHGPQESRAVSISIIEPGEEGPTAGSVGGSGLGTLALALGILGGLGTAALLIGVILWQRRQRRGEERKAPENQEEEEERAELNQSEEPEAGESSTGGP

[2] = target: Sodium-dependent serotonin transporter (Homo sapiens, UniProt P31645)
Sequence of Sodium-dependent serotonin transporter (P31645 whole entry): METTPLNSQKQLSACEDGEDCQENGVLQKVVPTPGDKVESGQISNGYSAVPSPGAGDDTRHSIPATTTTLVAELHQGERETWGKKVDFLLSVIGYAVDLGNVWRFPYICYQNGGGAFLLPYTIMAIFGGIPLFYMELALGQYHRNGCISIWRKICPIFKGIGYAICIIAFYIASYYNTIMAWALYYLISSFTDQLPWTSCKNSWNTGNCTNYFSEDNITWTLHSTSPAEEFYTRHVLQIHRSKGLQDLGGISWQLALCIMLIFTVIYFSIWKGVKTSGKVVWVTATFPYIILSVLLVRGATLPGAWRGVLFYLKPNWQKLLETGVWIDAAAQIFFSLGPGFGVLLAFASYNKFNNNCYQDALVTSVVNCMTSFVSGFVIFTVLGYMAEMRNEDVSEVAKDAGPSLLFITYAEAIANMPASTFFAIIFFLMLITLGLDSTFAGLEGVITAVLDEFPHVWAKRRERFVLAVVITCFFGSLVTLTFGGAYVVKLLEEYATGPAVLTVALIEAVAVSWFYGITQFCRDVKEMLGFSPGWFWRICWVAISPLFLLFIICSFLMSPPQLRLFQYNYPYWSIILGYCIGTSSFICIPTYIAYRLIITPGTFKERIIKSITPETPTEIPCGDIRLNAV

[3] = Metabolic stability in mouse liver microsomes assessed as parent compound remaining in presence of NADPH and measured after 60 mins by LC-MS/MS analysis
SH-SY5Y [4] = test: Cytotoxicity against human SH-SY5Y cells assessed as reduction in cell viability at 10 to 20 uM incubated for 24 hrs by MTT assay; type: toxicity, cell-based; details: dose 10-20 µM
SH-SY5Y [5] = test: Cytotoxicity against human SH-SY5Y cells assessed as cell death at 5 uM incubated for 24 hrs by MTT assay; type: toxicity, cell-based
[6] = Cytotoxicity against human SH-SY5Y cells assessed as cell viability at 5 uM incubated for 24 hrs by MTT assay relative to control; type: toxicity, cell-based; details: read-out: Activity
[7] = Cmax in mouse at 10 mg/kg, iv measured for 0.083 to 24 hrs; type: ADME, organism-based; parameters: time lower 0.083 hrs, dose 10 mg/kg, time upper 24 hrs, route iv; details: in vivo
[8] = Metabolic stability in mouse liver microsomes assessed as half life at 100 uM in presence of NADPH and measured for 5 to 60 mins by LC-MS/MS analysis; type: ADME, Microsome; details: time 5-60 min
[9] = target: Voltage-gated inwardly rectifying potassium channel KCNH2 (Homo sapiens, UniProt Q12809); test: Inhibition of hERG transfected in CHO cells by manual patch-clamp assay; type: toxicity, cell-based
Sequence of Voltage-gated inwardly rectifying potassium channel KCNH2 (Q12809 whole entry): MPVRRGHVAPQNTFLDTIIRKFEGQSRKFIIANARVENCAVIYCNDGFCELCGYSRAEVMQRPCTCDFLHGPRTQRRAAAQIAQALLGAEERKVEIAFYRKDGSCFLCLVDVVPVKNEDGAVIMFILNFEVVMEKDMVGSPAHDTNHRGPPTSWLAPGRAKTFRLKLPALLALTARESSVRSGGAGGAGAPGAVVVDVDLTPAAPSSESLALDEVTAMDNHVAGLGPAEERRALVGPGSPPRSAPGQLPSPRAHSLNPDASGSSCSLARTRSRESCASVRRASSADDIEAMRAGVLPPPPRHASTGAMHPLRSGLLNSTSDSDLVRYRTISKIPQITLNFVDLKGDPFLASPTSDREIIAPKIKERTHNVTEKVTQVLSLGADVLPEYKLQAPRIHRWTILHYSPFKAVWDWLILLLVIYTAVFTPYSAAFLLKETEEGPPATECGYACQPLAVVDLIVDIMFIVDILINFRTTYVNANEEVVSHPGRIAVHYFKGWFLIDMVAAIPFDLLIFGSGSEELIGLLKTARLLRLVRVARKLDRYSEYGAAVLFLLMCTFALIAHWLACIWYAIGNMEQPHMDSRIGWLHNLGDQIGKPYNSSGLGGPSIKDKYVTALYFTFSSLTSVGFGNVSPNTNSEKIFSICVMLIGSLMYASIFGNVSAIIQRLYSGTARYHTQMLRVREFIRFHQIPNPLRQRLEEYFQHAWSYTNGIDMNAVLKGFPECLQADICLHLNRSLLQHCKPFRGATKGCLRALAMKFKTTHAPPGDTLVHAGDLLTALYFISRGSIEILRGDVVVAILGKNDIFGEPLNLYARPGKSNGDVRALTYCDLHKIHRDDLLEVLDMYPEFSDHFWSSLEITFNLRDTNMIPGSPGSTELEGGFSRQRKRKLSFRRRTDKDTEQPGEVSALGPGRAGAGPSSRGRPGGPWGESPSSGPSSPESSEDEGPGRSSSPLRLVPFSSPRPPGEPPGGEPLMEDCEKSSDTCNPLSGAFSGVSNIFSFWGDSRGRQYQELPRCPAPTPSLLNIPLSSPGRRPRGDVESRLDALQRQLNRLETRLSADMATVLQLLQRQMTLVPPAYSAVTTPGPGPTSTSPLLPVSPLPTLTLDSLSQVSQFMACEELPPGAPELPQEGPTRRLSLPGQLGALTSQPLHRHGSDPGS

[10] = Toxicity in ICR mouse assessed as change in spleen to body weight ratio at 100 mg/kg, ip administered as single dose and measured after 2 weeks; type: organism-based; details: in vivo, 336 h
[11] = Toxicity in ICR mouse assessed as change in kidney to body weight ratio at 100 mg/kg, ip administered as single dose and measured after 2 weeks; type: organism-based; details: in vivo, 336 h
[12] = Toxicity in ICR mouse assessed as change in lungs to body weight ratio at 100 mg/kg, ip administered as single dose and measured after 2 weeks; type: organism-based; details: in vivo, 336 h
[13] = Cytotoxicity against human SH-SY5Y cells assessed as cell viability at 20 uM incubated for 24 hrs by MTT assay relative to control; type: toxicity, cell-based; details: read-out: Activity
[14] = Volume of distribution at steady state in mouse at 10 mg/kg, iv measured for 0.083 to 24 hrs; type: ADME, organism-based; details: in vivo, time 0.083-24 hrs, read-out: Vdss
[15] = Toxicity in ICR mouse assessed as animal survival at 200 mg/kg, ip administered as single dose measured upto 2 weeks; type: organism-based; details: in vivo, 336 h
[16] = Toxicity in ICR mouse assessed as change in liver to body weight ratio at 100 mg/kg, ip administered as single dose and measured after 2 weeks; type: organism-based; details: in vivo, 336 h
[17] = Metabolic stability in mouse liver microsomes assessed as clearance at 100 uM in presence of NADPH and measured for 5 to 60 mins by LC-MS/MS analysis; type: ADME, Microsome; details: time 5-60 min, read-out: CLH
CYP1A2 = target: T1, CYP1A2 (Homo sapiens, UniProt P05177); test: Inhibition of CYP1A2 in human liver microsomes at 10 uM incubated for 10 mins in presence of NADPH by LC-MS/MS analysis relative to control; type: ADME, Microsome
T1 sequence (P05177 whole entry): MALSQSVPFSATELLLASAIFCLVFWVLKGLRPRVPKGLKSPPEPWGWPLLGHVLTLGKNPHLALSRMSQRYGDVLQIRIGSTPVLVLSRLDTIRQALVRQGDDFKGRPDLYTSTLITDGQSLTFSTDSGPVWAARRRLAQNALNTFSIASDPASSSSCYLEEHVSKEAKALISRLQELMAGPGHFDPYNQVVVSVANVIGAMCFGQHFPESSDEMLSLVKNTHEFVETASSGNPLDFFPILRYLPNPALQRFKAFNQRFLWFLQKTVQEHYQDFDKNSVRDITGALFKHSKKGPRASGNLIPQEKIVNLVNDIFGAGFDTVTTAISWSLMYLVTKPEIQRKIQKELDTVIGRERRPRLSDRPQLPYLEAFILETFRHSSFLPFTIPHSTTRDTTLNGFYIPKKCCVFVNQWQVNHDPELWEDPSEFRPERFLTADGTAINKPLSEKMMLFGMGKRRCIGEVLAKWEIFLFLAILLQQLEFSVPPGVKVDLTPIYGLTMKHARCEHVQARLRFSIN

[18] = Oral bioavailability in mouse at 60 mg/kg measured for 0.25 to 24 hrs; type: ADME, organism-based; details: in vivo, time 0.25-24 hrs
CYP2C19 = CYP2C19 (Homo sapiens, UniProt P33261); test: Inhibition of CYP2C19 in human liver microsomes at 10 uM incubated for 10 mins in presence of NADPH by LC-MS/MS analysis relative to control; type: ADME, Microsome
Sequence of CYP2C19 (P33261 whole entry): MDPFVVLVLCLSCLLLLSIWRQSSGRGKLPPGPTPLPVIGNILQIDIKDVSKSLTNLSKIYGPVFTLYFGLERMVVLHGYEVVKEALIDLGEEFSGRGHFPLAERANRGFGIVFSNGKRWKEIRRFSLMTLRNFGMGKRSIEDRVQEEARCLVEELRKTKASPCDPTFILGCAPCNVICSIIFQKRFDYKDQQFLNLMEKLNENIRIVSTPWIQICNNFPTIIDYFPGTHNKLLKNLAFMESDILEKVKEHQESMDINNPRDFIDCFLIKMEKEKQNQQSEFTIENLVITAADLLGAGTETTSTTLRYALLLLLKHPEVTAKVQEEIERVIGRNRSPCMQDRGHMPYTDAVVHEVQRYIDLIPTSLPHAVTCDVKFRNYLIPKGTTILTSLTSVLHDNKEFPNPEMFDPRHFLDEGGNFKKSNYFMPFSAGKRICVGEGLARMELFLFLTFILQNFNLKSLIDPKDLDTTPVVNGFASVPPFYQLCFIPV

[19] = Half life in mouse at 60 mg/kg, po measured for 0.25 to 24 hrs; type: ADME, organism-based; details: in vivo, time 0.25-24 hrs
[20] = Clearance in mouse at 10 mg/kg, iv measured for 0.083 to 24 hrs; type: ADME, organism-based; details: in vivo, time 0.083-24 hrs
CYP3A4 = CYP3A4 (Homo sapiens, UniProt P08684); test: Inhibition of CYP3A4 in human liver microsomes at 10 uM incubated for 10 mins in presence of NADPH by LC-MS/MS analysis relative to control; type: ADME, Microsome
Sequence of CYP3A4 (P08684 whole entry): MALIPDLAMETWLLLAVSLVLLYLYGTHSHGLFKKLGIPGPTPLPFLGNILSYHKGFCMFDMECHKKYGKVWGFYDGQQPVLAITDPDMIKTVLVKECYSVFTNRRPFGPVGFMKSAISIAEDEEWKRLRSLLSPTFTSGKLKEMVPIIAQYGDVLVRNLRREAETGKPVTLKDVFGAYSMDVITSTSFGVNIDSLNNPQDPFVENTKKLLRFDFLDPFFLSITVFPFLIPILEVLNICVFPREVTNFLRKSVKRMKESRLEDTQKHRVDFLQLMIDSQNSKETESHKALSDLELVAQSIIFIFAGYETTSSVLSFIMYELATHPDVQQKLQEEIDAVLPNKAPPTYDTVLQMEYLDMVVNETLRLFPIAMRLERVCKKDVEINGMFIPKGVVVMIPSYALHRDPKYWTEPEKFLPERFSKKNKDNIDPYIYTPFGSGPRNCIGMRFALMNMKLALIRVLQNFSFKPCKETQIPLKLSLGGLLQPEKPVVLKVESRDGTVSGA

[21] = Half life in mouse at 10 mg/kg, iv measured for 0.083 to 24 hrs; type: ADME, organism-based; details: in vivo, time 0.083-24 hrs
Mus musculus [22] = test: Anti-depressant activity in ICR mouse assessed as reduction in immobility time at 60 mg/kg, po measured after 1 hr post treatment by tail suspension test; type: functional, organism-based
[23] = AUC (0 to infinity) in mouse at 60 mg/kg, po measured for 0.25 to 24 hrs; type: ADME, organism-based; parameters: time lower 0.25 hrs, dose 60 mg/kg, time upper 24 hrs, route po; details: in vivo
[24] = Toxicity in ICR mouse assessed as change in brain to body weight ratio at 100 mg/kg, ip administered as single dose and measured after 2 weeks; type: organism-based; details: in vivo, 336 h
[25] = Toxicity in ICR mouse assessed as animal survival at 100 mg/kg, ip administered as single dose measured upto 2 weeks; type: organism-based; details: in vivo
CYP2C9 = CYP2C9 (Homo sapiens, UniProt P11712); test: Inhibition of CYP2C9 in human liver microsomes at 10 uM incubated for 10 mins in presence of NADPH by LC-MS/MS analysis relative to control; type: ADME, Microsome
Sequence of CYP2C9 (P11712 whole entry): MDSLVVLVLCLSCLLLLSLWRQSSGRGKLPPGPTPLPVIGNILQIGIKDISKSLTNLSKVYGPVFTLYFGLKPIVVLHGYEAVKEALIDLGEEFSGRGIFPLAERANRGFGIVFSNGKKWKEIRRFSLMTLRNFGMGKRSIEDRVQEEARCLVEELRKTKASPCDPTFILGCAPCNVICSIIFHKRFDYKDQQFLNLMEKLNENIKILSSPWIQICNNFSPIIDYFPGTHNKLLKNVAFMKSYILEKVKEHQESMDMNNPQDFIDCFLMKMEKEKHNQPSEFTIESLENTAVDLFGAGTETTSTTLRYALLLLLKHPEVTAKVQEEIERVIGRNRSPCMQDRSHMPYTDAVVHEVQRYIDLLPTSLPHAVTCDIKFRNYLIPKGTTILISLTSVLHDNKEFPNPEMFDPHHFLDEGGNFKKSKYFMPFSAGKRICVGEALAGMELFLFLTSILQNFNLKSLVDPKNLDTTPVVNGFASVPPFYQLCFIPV

[26] = Cmax in mouse at 60 mg/kg, po measured for 0.25 to 24 hrs; type: ADME, organism-based; parameters: time 0.25-24 hrs, dose 60 mg/kg, route po; details: in vivo
[27] = AUC (0 to infinity) in mouse at 10 mg/kg, iv measured for 0.083 to 24 hrs; type: ADME, organism-based; parameters: dose 10 mg/kg, time 0.083-24 hrs, route iv; details: in vivo
SH-SY5Y [28] = test: Cytotoxicity against human SH-SY5Y cells assessed as effect on cell viability at 1 to 10 uM incubated for 24 hrs by MTT assay; type: toxicity, cell-based; details: dose 1-10 µM
[29] = Toxicity in ICR mouse assessed as change in heart to body weight ratio at 100 mg/kg, ip administered as single dose and measured after 2 weeks; type: organism-based; details: in vivo, 336 h
Mus musculus [30] = test: Anti-depressant activity in ICR mouse assessed as reduction in immobility time at 30 mg/kg, po measured after 1 hr post treatment by tail suspension test; type: functional, organism-based

Work on CCCCc1sc(C2CCN(CCc3c[nH]c4ccc(C#N)cc34)CC2)nc1-c1ccc(Oc2ccc(Cl)cc2)cc1 yielded an IC50 [1] of over 20 µM and an IC50 [2] of over 0.1 µM.
C[C@]12CC[C@H]3[C@@H](CCC4=CC(=O)CC[C@@]43C)[C@@H]1CC[C@@H]2O [TESTOSTERONE] gave a remaining at 1 h [3] of 2.2%.
In the case of CCCCCc1nc(C2CCN(CCCCc3cn(C)c4ccc(C#N)cc34)CC2)cn1-c1ccc(Oc2ccc(Cl)cc2)cc1, the Activity (SH-SY5Y [4]) is reported as “Toxic” and the Activity (SH-SY5Y [5]) is reported as “Toxic”.
For CCCCc1nc(C2CCN(CCCCc3c[nH]c4ccc(C#N)cc34)CC2)cn1-c1ccc(Oc2ccc(Cl)cc2)cc1, the Activity (SH-SY5Y [4]) was “Toxic”, the Activity (SH-SY5Y [5]) was “Toxic” and the viability at 24 h, 5 µM [6] was 4.82%.
In the case of CCCCc1sc(C2CCN(CCCCc3c[nH]c4ccc(C#N)cc34)CC2)nc1-c1ccc(Oc2ccc(Cl)cc2)cc1, the Activity (SH-SY5Y [4]) is reported as “Toxic” and the Activity (SH-SY5Y [5]) is reported as “Non-Toxic”.
In the case of CCCCc1sc(C2CCN(CCCCc3cn(C)c4ccc(C#N)cc34)CC2)nc1-c1ccc(Oc2ccc(Cl)cc2)cc1, the Cmax [7] is reported as 51700 ng/mL, the half-life at 100 µM [8] is reported as 1.31 h and the IC50 [9] is reported as 7.2 µM. The Activity [10] was “Non-Toxic”, the Activity [11] was “Non-Toxic” and the Activity [12] was “Non-Toxic”. The viability at 24 h, 20 µM [13] was over 80%, the Vd [14] was 1.04 L/kg and the Activity [15] was “Toxic”. For the same compound, the Activity [16] was “Non-Toxic”, the microsomal CLint at 100 µM [17] was 17.6 µL/min/mg and the inhibition at 10 min, 10 µM (CYP1A2) was 17.2%. For the same compound, the bioavailability [18] was 17.1%, the inhibition at 10 min, 10 µM (CYP2C19) was 23.7% and the half-life [19] was 5.55 h. For the same compound, the clearance [20] was 7.09 mL/min/kg, the inhibition at 10 min, 10 µM (CYP3A4) was 16.3% and the half-life [21] was 3.46 h. For the same compound, the Activity (Mus musculus [22]) was “Active”, the AUC(0-inf) [23] was 24700 ng·h/mL and the Activity [24] was “Non-Toxic”. It also gave a survival at 336 h [25] of 100%, an inhibition at 10 min, 10 µM (CYP2C9) of 8.6% and a Cmax [26] of 4940 ng/mL. The AUC(0-inf) [27] was 23700 ng·h/mL, the Activity (SH-SY5Y [28]) was “Non-Toxic” and the Activity [29] was “Non-Toxic”.
CCCCc1nc(-c2ccc(OCCCN(CC)CC)cc2)cn1-c1ccc(Oc2ccc(Cl)cc2)cc1 [AZELIRAGON] gave a half-life at 100 µM [8] of 1.55 h, an IC50 [9] of under 1 µM and a microsomal CLint at 100 µM [17] of 14.9 µL/min/mg. For the same compound, the inhibition at 10 min, 10 µM (CYP1A2) was 0%, the inhibition at 10 min, 10 µM (CYP2C19) was 7.9% and the inhibition at 10 min, 10 µM (CYP3A4) was 0%. The IC50 [2] was over 3 µM, the inhibition at 10 min, 10 µM (CYP2C9) was 3.7% and the Activity (SH-SY5Y [5]) was “Toxic”.
CCN(CC)CCOc1cccc(Nc2nc(-c3ccc(Cl)cc3)cc(-c3ccc(Cl)cc3)n2)c1 gave an IC50 [1] of 10.5 µM.
CCCCc1nc(C2CCN(CCc3c[nH]c4ccc(C#N)cc34)CC2)cn1-c1ccc(Oc2ccc(Cl)cc2)cc1 gave an IC50 [1] of over 20 µM and an IC50 [2] of over 0.1 µM.
For N#Cc1ccc2[nH]cc(CCCCN3CCN(c4ccc5oc(C(N)=O)cc5c4)CC3)c2c1 [VILAZODONE], the half-life at 100 µM [8] was 0.468 h, the IC50 [1] was over 200 µM and the microsomal CLint at 100 µM [17] was 49.3 µL/min/mg. It also gave an inhibition at 10 min, 10 µM (CYP1A2) of 14.4%, an inhibition at 10 min, 10 µM (CYP2C19) of 51.3% and an inhibition at 10 min, 10 µM (CYP3A4) of 29%. The inhibition at 10 min, 10 µM (CYP2C9) was 49.2% and the Activity (Mus musculus [30]) was “Active”.
In the case of CCCCc1nc(C2CCN(Cc3c[nH]c4ccc(C#N)cc34)CC2)cn1-c1ccc(Oc2ccc(Cl)cc2)cc1, the Activity (SH-SY5Y [4]) is reported as “Toxic” and the Activity (SH-SY5Y [5]) is reported as “Toxic”.
In the case of CCc1nc(C2CCN(CCCCc3c[nH]c4ccc(C#N)cc34)CC2)cn1-c1ccc(Oc2ccc(Cl)cc2)cc1, the Activity (SH-SY5Y [4]) is reported as “Toxic” and the Activity (SH-SY5Y [5]) is reported as “Toxic”.
For N#Cc1ccc2[nH]cc(CCCCN3CCC(c4cn(-c5ccc(Oc6ccc(Cl)cc6)cc5)c(C5CCC5)n4)CC3)c2c1, the Activity (SH-SY5Y [4]) was “Toxic” and the Activity (SH-SY5Y [5]) was “Toxic”.
For CCCc1nc(C2CCN(CCCCc3c[nH]c4ccc(C#N)cc34)CC2)cn1-c1ccc(Oc2ccc(Cl)cc2)cc1, the Activity (SH-SY5Y [4]) was “Toxic” and the Activity (SH-SY5Y [5]) was “Toxic”.
